Data from US20100298141A1, “SUBSTITUTED PYRIDINE N-OXIDE HERBICIDES” (E. I. DU PONT DE NEMOURS AND COMPANY, priority 2007, published 2010).

Assays:
Assay in all cases: Test F preemergence test
large crabgrass = format: in vivo, Digitaria sanguinalis; settings: scale 0 to 100
Summary of the method: (§1)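 Test chemicals were formulated in a non-phytotoxic solvent mixture with surfactant and applied preemergence to planted seeds or postemergence to sugarcane plants. Plants were kept in a greenhouse for 14 to 21 days, then visually evaluated against controls.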

green foxtail = format: in vivo, Setaria viridis; settings: scale 0 to 100
Summary of the method: as §1

goosegrass = format: in vivo, Eleusine indica; settings: scale 0 to 100
Summary of the method: as §1

johnsongrass = format: in vivo, Sorghum halepense; settings: scale 0 to 100
Summary of the method: as §1

pitted morningglory = format: in vivo, Ipomoea lacunosa; settings: scale 0 to 100
Summary of the method: as §1

purple nutsedge = format: in vivo, Cyperus rotundus; settings: scale 0 to 100
Summary of the method: as §1

common ragweed = format: in vivo, Ambrosia elation; settings: scale 0 to 100
Summary of the method: as §1

barnyardgrass = format: in vivo, Echinochloa crus-galli
Summary of the method: as §1

southern sandbur = format: in vivo, Cenchrus echinatus; settings: scale 0 to 100
Summary of the method: as §1

Italian ryegrass = format: in vivo, Lolium multiflorum; settings: scale 0 to 100
Summary of the method: as §1

common purslane = format: in vivo, Portulaca oleracea; settings: scale 0 to 100
Summary of the method: as §1

common groundsel = format: in vivo, Senecio vulgaris; settings: scale 0 to 100
Summary of the method: as §1

annual bluegrass = format: in vivo, Poa annua; settings: scale 0 to 100
Summary of the method: as §1

naked crabgrass = format: in vivo, Digitaria nuda; settings: scale 0 to 100
Summary of the method: as §1

itchgrass = format: in vivo, Rottboellia cochinchinensis; settings: scale 0 to 100
Summary of the method: as §1

field bindweed = format: in vivo, Convolvulus arvensis; settings: scale 0 to 100
Summary of the method: as §1

[1] = 62 g ai/ha, Preemergence, scale 0 to 100
[2] = Preemergence, 31 g ai/ha, scale 0 to 100

Cn1nc(C(F)(F)F)c(C[S+]([O-])c2ccc(F)c[n+]2[O-])c1OCC(F)(F)F (centres unmarked) [Compound 67]
20: Plant response rating, Ragweed (common ragweed; 16 g ai/ha, preemergence)
65: Plant response rating, Crabgrass, Large (large crabgrass; 16 g ai/ha, preemergence) | Plant response rating, Ragweed (common ragweed; Preemergence, 31 g ai/ha) | Itchgrass plant response rating (itchgrass; 62 g ai/ha, Preemergence)
100: Crabgrass, Large plant response rating (large crabgrass; 125 g ai/ha, preemergence) | Foxtail, Green plant response rating (green foxtail; 125 g ai/ha, preemergence) | Goosegrass plant response rating (goosegrass; 125 g ai/ha, preemergence) | Barnyardgrass plant response rating (barnyardgrass; [1]) | Barnyardgrass plant response rating (barnyardgrass; 125 g ai/ha, preemergence, scale 0 to 100) | Sandbur plant response rating (southern sandbur; 125 g ai/ha, preemergence) | Plant response rating, Sandbur (southern sandbur; Preemergence, 62 g ai/ha) | Plant response rating, Sandbur (southern sandbur; Preemergence, 31 g ai/ha) | Ryegrass, Italian plant response rating (Italian ryegrass; 125 g ai/ha, preemergence) | Plant response rating, Ryegrass, Italian (Italian ryegrass; Preemergence, 62 g ai/ha) | Purslane plant response rating (common purslane; 125 g ai/ha, preemergence) | Bluegrass plant response rating (annual bluegrass; 125 g ai/ha, preemergence) | Crabgrass, Naked plant response rating (naked crabgrass; 62 g ai/ha, Preemergence) | Crabgrass, Naked plant response rating (naked crabgrass; 125 g ai/ha, preemergence) | Itchgrass plant response rating (itchgrass; 125 g ai/ha, preemergence)
75: Johnsongrass plant response rating (johnsongrass; 62 g ai/ha, Preemergence) | Plant response rating, Johnsongrass (johnsongrass; Preemergence, 31 g ai/ha) | Plant response rating, Barnyardgrass (barnyardgrass; 16 g ai/ha, preemergence, scale 0 to 100 (0 no effect, 100 complete control)) | Plant response rating, Ryegrass, Italian (Italian ryegrass; Preemergence, 31 g ai/ha)
50: Plant response rating, Goosegrass (goosegrass; 16 g ai/ha, preemergence)
0: Plant response rating, Purple Nutsedge (purple nutsedge; 16 g ai/ha, preemergence) | Plant response rating, Purslane (common purslane; 16 g ai/ha, preemergence) | Plant response rating, Purslane (common purslane; Preemergence, 31 g ai/ha) | Plant response rating, Groundsel (common groundsel; 16 g ai/ha, preemergence) | Plant response rating, Bluegrass (annual bluegrass; 16 g ai/ha, preemergence) | Plant response rating, Bluegrass (annual bluegrass; Preemergence, 31 g ai/ha) | Plant response rating, Field Bindweed (field bindweed; 16 g ai/ha, preemergence)
10: Plant response rating, Field Bindweed (field bindweed; Preemergence, 31 g ai/ha)
30: Plant response rating, Purple Nutsedge (purple nutsedge; Preemergence, 31 g ai/ha)
70: Plant response rating, Goosegrass (goosegrass; Preemergence, 31 g ai/ha) | Morningglory plant response rating (pitted morningglory; 62 g ai/ha, Preemergence) | Plant response rating, Morningglory (pitted morningglory; Preemergence, 31 g ai/ha) | Plant response rating, Crabgrass, Naked (naked crabgrass; Preemergence, 31 g ai/ha)
35: Plant response rating, Johnsongrass (johnsongrass; 16 g ai/ha, preemergence) | Field Bindweed plant response rating (field bindweed; 62 g ai/ha, Preemergence)
90: Morningglory plant response rating (pitted morningglory; 125 g ai/ha, preemergence) | Plant response rating, Ragweed (common ragweed; Preemergence, 62 g ai/ha) | Plant response rating, Barnyardgrass (barnyardgrass; [2])
98: Crabgrass, Large plant response rating (large crabgrass; 62 g ai/ha, Preemergence) | Plant response rating, Crabgrass, Large (large crabgrass; Preemergence, 31 g ai/ha) | Ragweed plant response rating (common ragweed; 125 g ai/ha, preemergence) | Groundsel plant response rating (common groundsel; 125 g ai/ha, preemergence)
60: Plant response rating, Foxtail, Green (green foxtail; Preemergence, 31 g ai/ha) | Purple Nutsedge plant response rating (purple nutsedge; 62 g ai/ha, Preemergence) | Plant response rating, Sandbur (southern sandbur; 16 g ai/ha, preemergence) | Plant response rating, Crabgrass, Naked (naked crabgrass; 16 g ai/ha, preemergence)
15: Plant response rating, Itchgrass (itchgrass; 16 g ai/ha, preemergence)
25: Plant response rating, Groundsel (common groundsel; Preemergence, 31 g ai/ha) | Plant response rating, Itchgrass (itchgrass; Preemergence, 31 g ai/ha)
80: Foxtail, Green plant response rating (green foxtail; 62 g ai/ha, Preemergence) | Goosegrass plant response rating (goosegrass; 62 g ai/ha, Preemergence) | Groundsel plant response rating (common groundsel; 62 g ai/ha, Preemergence) | Bluegrass plant response rating (annual bluegrass; 62 g ai/ha, Preemergence) | Field Bindweed plant response rating (field bindweed; 125 g ai/ha, preemergence)
95: Johnsongrass plant response rating (johnsongrass; 125 g ai/ha, preemergence) | Purple Nutsedge plant response rating (purple nutsedge; 125 g ai/ha, preemergence) | Purslane plant response rating (common purslane; 62 g ai/ha, Preemergence)
40: Plant response rating, Foxtail, Green (green foxtail; 16 g ai/ha, preemergence) | Plant response rating, Morningglory (pitted morningglory; 16 g ai/ha, preemergence) | Plant response rating, Ryegrass, Italian (Italian ryegrass; 16 g ai/ha, preemergence)

CC(c1c(C(F)(F)F)nn(C)c1OC(F)F)S(=O)(=O)c1cccc[n+]1[O-] (centres unmarked) [Compound 5]
40: Plant response rating, Ryegrass, Italian (Italian ryegrass; Preemergence, 16 g ai/ha)
50: Plant response rating, Johnsongrass (johnsongrass; Preemergence, 16 g ai/ha) | Plant response rating, Morningglory (pitted morningglory; Preemergence, 16 g ai/ha) | Plant response rating, Morningglory (pitted morningglory; Preemergence, 31 g ai/ha) | Plant response rating, Ragweed (common ragweed; 8 g ai/ha, preemergence) | Plant response rating, Purslane (common purslane; Preemergence, 31 g ai/ha)
15: Plant response rating, Sandbur (southern sandbur; 8 g ai/ha, preemergence)
65: Plant response rating, Ragweed (common ragweed; Preemergence, 16 g ai/ha) | Purslane plant response rating (common purslane; 62 g ai/ha, Preemergence)
10: Plant response rating, Crabgrass, Large (large crabgrass; 8 g ai/ha, preemergence) | Plant response rating, Goosegrass (goosegrass; 8 g ai/ha, preemergence) | Plant response rating, Ryegrass, Italian (Italian ryegrass; 8 g ai/ha, preemergence) | Plant response rating, Itchgrass (itchgrass; 8 g ai/ha, preemergence)
60: Plant response rating, Purple Nutsedge (purple nutsedge; Preemergence, 16 g ai/ha) | Plant response rating, Ryegrass, Italian (Italian ryegrass; Preemergence, 31 g ai/ha) | Plant response rating, Crabgrass, Naked (naked crabgrass; 8 g ai/ha, preemergence)
85: Plant response rating, Crabgrass, Large (large crabgrass; Preemergence, 31 g ai/ha) | Plant response rating, Goosegrass (goosegrass; Preemergence, 16 g ai/ha)
25: Plant response rating, Johnsongrass (johnsongrass; 8 g ai/ha, preemergence) | Plant response rating, Itchgrass (itchgrass; Preemergence, 16 g ai/ha)
0: Plant response rating, Foxtail, Green (green foxtail; 8 g ai/ha, preemergence) | Plant response rating, Morningglory (pitted morningglory; 8 g ai/ha, preemergence) | Plant response rating, Purslane (common purslane; 8 g ai/ha, preemergence) | Plant response rating, Bluegrass (annual bluegrass; 8 g ai/ha, preemergence) | Plant response rating, Field Bindweed (field bindweed; 8 g ai/ha, preemergence) | Field Bindweed plant response rating (field bindweed; 62 g ai/ha, Preemergence) | Plant response rating, Field Bindweed (field bindweed; Preemergence, 16 g ai/ha) | Plant response rating, Field Bindweed (field bindweed; Preemergence, 31 g ai/ha)
100: Goosegrass plant response rating (goosegrass; 62 g ai/ha, Preemergence) | Johnsongrass plant response rating (johnsongrass; 62 g ai/ha, Preemergence) | Plant response rating, Johnsongrass (johnsongrass; Preemergence, 31 g ai/ha) | Ragweed plant response rating (common ragweed; 62 g ai/ha, Preemergence) | Barnyardgrass plant response rating (barnyardgrass; [1]) | Sandbur plant response rating (southern sandbur; 62 g ai/ha, Preemergence) | Plant response rating, Sandbur (southern sandbur; Preemergence, 31 g ai/ha) | Plant response rating, Groundsel (common groundsel; 8 g ai/ha, preemergence) | Groundsel plant response rating (common groundsel; 62 g ai/ha, Preemergence) | Plant response rating, Groundsel (common groundsel; Preemergence, 16 g ai/ha) | Plant response rating, Groundsel (common groundsel; Preemergence, 31 g ai/ha) | Crabgrass, Naked plant response rating (naked crabgrass; 62 g ai/ha, Preemergence) | Plant response rating, Crabgrass, Naked (naked crabgrass; Preemergence, 31 g ai/ha)
20: Plant response rating, Bluegrass (annual bluegrass; Preemergence, 16 g ai/ha)
30: Plant response rating, Foxtail, Green (green foxtail; Preemergence, 16 g ai/ha) | Plant response rating, Purple Nutsedge (purple nutsedge; 8 g ai/ha, preemergence)
35: Plant response rating, Purslane (common purslane; Preemergence, 16 g ai/ha) | Plant response rating, Itchgrass (itchgrass; Preemergence, 31 g ai/ha)
90: Foxtail, Green plant response rating (green foxtail; 62 g ai/ha, Preemergence) | Plant response rating, Goosegrass (goosegrass; Preemergence, 31 g ai/ha) | Purple Nutsedge plant response rating (purple nutsedge; 62 g ai/ha, Preemergence) | Itchgrass plant response rating (itchgrass; 62 g ai/ha, Preemergence)
80: Plant response rating, Crabgrass, Large (large crabgrass; Preemergence, 16 g ai/ha) | Morningglory plant response rating (pitted morningglory; 62 g ai/ha, Preemergence)
98: Plant response rating, Barnyardgrass (barnyardgrass; [2])
95: Crabgrass, Large plant response rating (large crabgrass; 62 g ai/ha, Preemergence) | Plant response rating, Crabgrass, Naked (naked crabgrass; Preemergence, 16 g ai/ha)
75: Plant response rating, Purple Nutsedge (purple nutsedge; Preemergence, 31 g ai/ha) | Plant response rating, Ragweed (common ragweed; Preemergence, 31 g ai/ha) | Plant response rating, Barnyardgrass (barnyardgrass; Preemergence, 16 g ai/ha, scale 0 to 100) | Plant response rating, Sandbur (southern sandbur; 16 g ai/ha, preemergence) | Ryegrass, Italian plant response rating (Italian ryegrass; 62 g ai/ha, Preemergence) | Bluegrass plant response rating (annual bluegrass; 62 g ai/ha, Preemergence) | Plant response rating, Bluegrass (annual bluegrass; Preemergence, 31 g ai/ha)
70: Plant response rating, Foxtail, Green (green foxtail; Preemergence, 31 g ai/ha) | Plant response rating, Barnyardgrass (barnyardgrass; 8 g ai/ha, preemergence, scale 0 to 100)
